The subject of the experiment is SARS-CoV-2 (USA-WA1/2020). Type of experiment: cell-based. Particulars: Caco-2 cells, vs DMSO controls.

Each structure is given as a SMILES string. Read-outs that look alike come from different tables or passages of the source.

As for `Cc1cccc(/C=N/Nc2cc(N3CCOCC3)nc(OCCc3ccccn3)n2)c1` [Apilimod], the “Percent Infection (Exp 1)” value reads like this: (apilimod 31.25 nM single agent) 93.632%; (apilimod 62.5 nM single agent) 75.308%; (apilimod 125 nM single agent) 35.618%; (apilimod 250 nM single agent) 11.935%; (apilimod 500 nM single agent) 12.267%; (apilimod 1000 nM single agent) 4.524%. Also, the “Percent Infection (Exp 1)” value (apilimod 2000 nM single agent) is 0.591%. Besides, the “Percent Infection (Exp 2)” value is 74.342% (apilimod 31.25 nM single agent); 53.914% (apilimod 62.5 nM single agent); 37.259% (apilimod 125 nM single agent); 29.685% (apilimod 250 nM single agent); 18.730% (apilimod 500 nM single agent); 2.968% (apilimod 1000 nM single agent). Also, the “Percent Infection (Exp 2)” value (apilimod 2000 nM single agent) is given as 0.297%.
